Test results reported in US20140309107A1.

Legend:
Alternaria solani = experiment: Alternaria Test (Tomatoes)/Preventive; type: in vivo; settings: young tomato plants sprayed preventively, evaluated 3 days after inoculation; application rate B19 500 ppm, F206 100 ppm, B19 + F206 500 + 100 ppm (1:0.2); 0% = untreated control, 100% = no disease
Text: A solution comprising 8.5×10^8 CFU/g (1.34%) of this strain was used.

Botrytis cinerea = Botrytis cinerea Test (Roses)/Preventive (field trial); settings: young rose plants in the field, sprayed twice five days apart, leaves and stems evaluated fifteen days after second application; B9 (RHAPSODY) 2 mL/L, F196 (SCALA) 1.25 mL/L, combination 2 mL/L + 1.25 mL/L
Protocol: The application rate of Bacillus subtilis AQ713 refers to the amount of (1.34%) Bacillus subtilis AQ713 (NRRL Accession No. B-21661) (i.e., spore preparation) contained in a formulation of AQ713.
The rose plants were grown in the field under conditions where disease pressure from Botrytis cinerea was present. Each treatment was applied twice to the plants at intervals five days apart. The efficacy of the treatments in preventing Botrytis infection on the leaves and stems of the plants was evaluated fifteen days after the second application.

Compound | Efficacy in % Found (activity observed) (Alternaria solani) [%] | Efficacy in % Found (activity observed) (Botrytis cinerea) [%]
C#CCOc1ccc(CCNC(=O)C(OCC#C)c2ccc(Cl)cc2)cc1OC (centres unmarked) [F206 mandipropamid, mandipropamid] | 0 | 
Cc1cc(C)nc(Nc2ccccc2)n1 [F196 pyrimethanil, pyrimethanil] |  | 40
